This is an account of results in PubChem BioAssay AID1645864 (Buhrlage Lab, Dana-Farber Cancer Institute and Novartis …, 2021).

Active and inactive are the calls of the source.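 The calls were made as follows: active = maximal inhibition of USP17 at or above 30% in the confirmation dose-response, a value not among the printed readouts; inactive = the rest.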

For this test, the target named is Ubiquitin carboxyl-terminal hydrolase 17-like protein 5 (Homo sapiens) (UniProt A8MUK1). In words: ubiquitin-specific protease 17 inhibitors, concentration series, biochemical, verification of primary actives (AID 1645864). The settings on record: purified USP17, ubiquitin-rhodamine cleavage fluorescence, 3 h.
Ubiquitin carboxyl-terminal hydrolase 17-like protein 5 (Homo sapiens), sequence (A8MUK1 whole entry, looked up): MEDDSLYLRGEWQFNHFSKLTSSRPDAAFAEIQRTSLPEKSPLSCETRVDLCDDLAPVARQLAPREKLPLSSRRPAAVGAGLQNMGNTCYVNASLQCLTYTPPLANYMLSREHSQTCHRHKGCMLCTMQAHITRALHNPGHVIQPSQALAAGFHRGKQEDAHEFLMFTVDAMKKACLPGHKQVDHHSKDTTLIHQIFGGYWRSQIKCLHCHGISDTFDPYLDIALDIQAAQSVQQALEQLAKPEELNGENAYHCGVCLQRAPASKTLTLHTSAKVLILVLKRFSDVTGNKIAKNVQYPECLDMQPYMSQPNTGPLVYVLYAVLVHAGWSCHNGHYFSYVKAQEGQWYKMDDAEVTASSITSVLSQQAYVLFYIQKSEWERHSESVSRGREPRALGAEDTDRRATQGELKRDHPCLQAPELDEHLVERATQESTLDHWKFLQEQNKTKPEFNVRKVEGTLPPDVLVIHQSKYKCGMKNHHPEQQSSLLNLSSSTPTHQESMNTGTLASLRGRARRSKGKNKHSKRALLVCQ
Take `Clc1cc2nc(N3CCN(c4ccccn4)CC3)c3nncn3c2cc1Cl`: the IC50 – broadly, the concentration needed to halve the response being measured – is 2.17 µM.
The result for `COc1cccc(NC(=O)CSc2nnc(-c3cc4cccc(OC)c4o3)n2C)c1` reads 11.9 µM; that for `Cc1ccc(C(=O)Nc2ccc3nccnc3c2)cc1`, > 50 µM (inactive).
As for `O=C(CNc1nc(Nc2ccccc2F)nc(Nc2ccccc2F)n1)Nc1ccccc1`, the 50% inhibitory concentration (IC50) was 35.5 µM.
For `CCn1cc2c(n1)c(=O)n(Cc1ccccc1)c(=O)n2CC(=O)Nc1ccc(OC)cc1`, the IC50 was 2.91 µM.
Next, `O=c1[nH]c(-c2ccccn2)nc2c1CCN(Cc1cnn(-c3ccccc3)c1)C2`: > 50 µM (inactive); `COc1ccc(CCNC(=O)c2ccc3ccccc3c2)cc1OC`: > 50 µM (inactive); `COc1ccc(NC(=O)c2ccnc(Nc3ccc(OC)cc3)c2)cc1`: 42.4 µM.
For the compound `Cc1cc(O)c(Oc2cc(C)cc(O)c2O)c(O)c1`, the IC50 was 26.6 µM.
Turning to `COC(=O)c1cc(C#N)c(NCc2ccccc2)nc1C`, the IC50 was 13.4 µM.
`O=C(Nc1cccc(Cl)c1)c1ncn2c1CNS(=O)(=O)c1ccccc1-2`: the IC50 is 6.05 µM.
In the case of `O=C(COc1ncnc2ccccc12)Nc1ccc2c(c1)OC1(CCCC1)O2`, the IC50 was 35.2 µM.
As for `CC(=O)Nc1ccc(NC(=O)c2cc(-c3cc(C)cc(C)c3O)n[nH]2)cc1`, the IC50 is 16.3 µM.
As to `Cc1ccccc1NC(=O)c1nc(-c2cn(Cc3ccc(F)cc3)nn2)no1`, the IC50 is 8.42 µM.
In the case of `CCc1c(C)c(C#N)c2nc3ccccc3n2c1N1CCN(C2CCCC2)CC1`, the half-maximal inhibitory concentration (IC50) is 3.06 µM.
Next, `CC(CCc1ccccc1)NC(=O)Cn1c(=O)c2cccn2c2ccccc21` (configuration not stated): 11.6 µM; `Cc1nc(-c2ccccc2F)sc1C(=O)Nc1cccnc1`: 35.6 µM; `Cc1cccc(C(=O)Nc2cccc(SC(C(=O)Nc3ccc(Cl)c(C(=O)O)c3)c3ccccc3)c2)c1` (configuration not stated): 15.2 µM.
As for `COc1ccc(N(CC(=O)NC2CCCCC2)C(=O)c2ccc(-c3ccccc3)[nH]2)cc1OC`, the 50% inhibitory concentration (IC50) was 3.04 µM.
In the case of `O=[N+]([O-])c1cccc(CSc2nnc(/C=C/c3ccccc3)o2)c1`, the IC50 is > 50 µM (inactive).
The result for `CN(C)C(=O)CSc1nnc(-c2cccc(Cl)c2)n1-c1ccc(Cl)c(C(F)(F)F)c1` reads 2.81 µM; that for `Cc1ccc2nc(CNC(=O)c3ccccc3-c3nc(-c4ccc(F)cc4)no3)[nH]c2c1`, 27.2 µM; that for `O=C(CN1C(=O)c2ccccc2Sc2ccc(C(=O)N3CCCC3)cc21)Nc1ccccc1Cl`, 34.1 µM.
On to `Fc1cccc(Cn2cc(-c3noc(-c4ccncc4)n3)nn2)c1`, for which the concentration for half-maximal inhibition (IC50) was 28.7 µM.
With `CCN(CC)C(=O)c1sc(NC(=O)/C=C/c2c(F)cccc2Cl)c(C#N)c1C`, the concentration for half-maximal inhibition (IC50) is 2.29 µM.
Turning to `COc1cccc(C(=O)Nc2ccc(-n3cnnn3)cc2)c1`, the IC50 was > 50 µM (inactive).
With `CCC1=C(c2ccc(C)cc2)S(=O)(=O)NC1=NCC(=O)NCc1ccccc1F`, the half-inhibitory concentration (IC50) is 35.3 µM.
For `COc1ccc(-c2nc(SCC(=O)Nc3ccc(C(C)=O)cc3)n[nH]2)cc1`, the IC50 was 10.8 µM.
Consider `COc1ccc(-c2cc3nc(C)cc(Nc4ccc(F)cc4)n3n2)cc1OC`, for which the IC50 is > 50 µM (inactive).
The result for `Oc1ccc(-c2nc3cnccn3c2NCCc2ccccc2)c(O)c1` reads > 50 µM (inactive).
With `CC1CC(=O)N(Cc2ccc([N+](=O)[O-])cc2)c2ccccc2S1` (configuration not stated), the IC50 is > 50 µM (inactive).
Regarding `NS(=O)(=O)c1cc(C(=O)OCC(=O)c2ccc3c(c2)OCCO3)ccc1Cl`, the IC50 is > 50 µM (inactive).
Next, `O=C(Nc1ccc2c(c1)OCCO2)c1cccc2nc3ccccc3nc12`: 2.51 µM.
Consider `O=C(CCc1c[nH]c2ccccc12)Nc1ccc(N2CCOCC2)cc1`, for which the IC50 is 30.5 µM.
As to `O=C(COC(=O)CCc1ccc(S(=O)(=O)N2CCOCC2)cc1)Nc1ccc2c(c1)OCCO2`, the IC50 is > 50 µM (inactive).
With `N#Cc1ccc(-c2ccc(OCC(=O)Nc3ccc4c(c3)OCO4)cc2)cc1`, the concentration for half-maximal inhibition (IC50) is 2.48 µM.
The result for `CC(C)(C)N=C1Nc2ncccc2NC12CCCN(C(=O)c1ccccc1)C2` (configuration not stated) reads > 50 µM (inactive); that for `CC(=O)c1ccc(NC(=O)CC2C(=O)Nc3nc4ccccc4n32)cc1` (configuration not stated), 32.5 µM; that for `O=C1CC(c2ccco2)Cc2[nH]c(=O)c(-c3nc(-c4ccc(Cl)cc4)cs3)cc21` (configuration not stated), > 50 µM (inactive).
Turning to `O=C(NCc1ccc2c(c1)OCO2)c1cc2c(s1)-c1ccccc1OC2`, the half-inhibitory concentration (IC50) is 3.99 µM.
As to `Cc1cnc(CN2CCCC(c3ccc4cn[nH]c4n3)C2)cn1` (configuration not stated), the IC50 is > 50 µM (inactive).
`Cc1nc(C(=O)N[C@@H](C)C(=O)NCc2ccc3c(c2)OCO3)cc2c1[nH]c1ccccc12`: the half-inhibitory concentration (IC50) was 27.2 µM.
With `O=C(COc1ccc2c(-c3ccccc3)cc(=O)oc2c1)Nc1cccnc1`, the IC50 was 1.7 µM.
Next, `O=C(Nc1ccc(-c2cn3ccccc3n2)cc1)C1C=C2C=C(Br)C=CC2OC1=O` (configuration not stated): 0.577 µM; `COc1ccc2cc1Oc1cc(ccc1OC)C(O)C13SSC4(C(=O)N1C)C(O)C1=COC=CC(OC2=O)C1N4C3=O` (configuration not stated): > 50 µM (inactive).
Turning to `O=C(Cc1nnc2c(-c3nc(C4CC4)no3)cccn12)Nc1ccccc1`, the concentration for half-maximal inhibition (IC50) is 20.1 µM.
The result for `COc1cc(C2SCC(=O)Nc3c2c(-c2ccccc2)nn3-c2ccccc2)cc(OC)c1OC` (configuration not stated) reads > 50 µM (inactive); that for `COc1cccc2c1OCC(NS(=O)(=O)c1cc(C)ccc1C)C2` (configuration not stated), > 50 µM (inactive); that for `Cc1ccc2c(c1)N=C(c1ccc([N+](=O)[O-])cc1)CO2`, > 50 µM (inactive).
Take `Cc1cc(C(=O)N2CC(C(=O)Nc3cc(C(F)(F)F)ccc3Cl)C2)no1`: the concentration for half-maximal inhibition (IC50) is 38.4 µM.
As to `COCCN(C1CCN(CCc2ccc(Cl)cc2)CC1)S(=O)(=O)c1cccc2cccnc12`, the IC50 was > 50 µM (inactive).
With `CCn1cnc2c1c(=O)n(CC(=O)NCc1ccccc1Cl)c(=O)n2Cc1ccccc1`, the IC50 was > 50 µM (inactive).
In the case of `Fc1ccc(Oc2nc(CN3CCOCC3)nc3sc4c(c23)CCCC4)c(Cl)c1`, the IC50 is > 50 µM (inactive).
Next, `COc1cc(NC(=O)Cc2ccccc2)ccc1NC(=O)c1cc2ccccc2o1`: 9.82 µM; `CCCC(O)CCCCCCCc1cc(O)cc(O)c1C(=O)OC(CCC)CCCCCCCc1cc(O)cc(O)c1` (configuration not stated): 28.6 µM.
With `CC(C)CCN1C(=O)C2C(C(=O)Nc3ccc(Oc4ccccc4)cc3)C3C=CC2(O3)C1C(=O)NC1CCCCC1` (configuration not stated), the IC50 was 34 µM.
The result for `Cc1ccc(-c2nc(-c3cccs3)cc(C(F)(F)F)c2C#N)cc1` reads > 50 µM (inactive); that for `COc1ccc(CNC(=O)CCc2nc3sc4c(c3c(=O)[nH]2)CCCCC4)cc1`, > 50 µM (inactive); that for `Cc1ccc2[nH]c(=O)c(CN(CC3COCCO3)S(=O)(=O)c3ccc(F)cc3)cc2c1` (configuration not stated), 4.16 µM.
For the compound `Cc1sc(NC(=O)CNc2ccccc2)nc1-c1ccc2c(c1)CCN2C(=O)C(C)C`, the IC50 is > 50 µM (inactive).
Regarding `CO/C=C/C(=O)c1cc2cnc3c(=N)cc(NC(C)=O)c([nH]1)c23`, the IC50 was > 50 µM (inactive).
For `COc1cccc(Cn2nc3n(CC(C)C)c(=O)c4ccc(C(=O)NCC(C)C)cc4n3c2=O)c1`, the IC50 is 6.84 µM.
`COc1ccc(CC(=O)Nc2ccc3nc(N4CCOCC4)cc(C)c3c2)cc1`: the 50% inhibitory concentration (IC50) is 24.2 µM.
Take `O=[N+]([O-])c1ccc2c(c1)nc1n2CCN(Cc2ccco2)C1`: the IC50 is > 50 µM (inactive).
Consider `CC1CCCN(CCCNC(=O)c2ccc(N3CCc4ccccc43)s2)C1` (configuration not stated), for which the IC50 is > 50 µM (inactive).
As for `COc1ccc(-c2cc(-c3ccccc3)nc(SCC(N)=O)c2C#N)cc1OC`, the 50% inhibitory concentration (IC50) was 1.61 µM.
Consider `Cc1nc(SCC(=O)Nc2cc(Cl)ccc2C)c2oc3ccccc3c2n1`, for which the IC50 was 1.67 µM.
With `CCc1c(Cl)c(O)c(Cl)c(O)c1C(=O)O[C@H]1C(C)O[C@@H](OC/C2=C\C=C\CC(O)/C(C)=C/C(CC)C(O[C@@H]3OC(C)(C)[C@H](O)C(OC(=O)C(C)C)[C@@H]3O)/C(C)=C/C(C)=C/CC(C(C)O)OC2=O)[C@@H](OC)C1O` (some centres not stated), the IC50 is > 50 µM (inactive).
As for `COc1cc([C@@H]2c3cc4c(cc3C[C@@H]3COC(=O)[C@H]32)OCO4)cc(OC)c1OC`, the IC50 is 17.3 µM.
Take `Cc1ccc(CNC(=O)CCCn2c(=O)c3sccc3n(CC(=O)OCc3ccccc3)c2=O)cc1`: the half-inhibitory concentration (IC50) was 2.5 µM.
Consider `N#Cc1ccc(NC(=O)c2ccc(S(=O)(=O)N3CCCCC3)cc2)cc1`, for which the 50% inhibitory concentration (IC50) was 11.6 µM.
Regarding `CSc1ncccc1C(=O)OCc1ccc(Br)cc1`, the IC50 was > 50 µM (inactive).
For the compound `CN(C)c1ccc(C2CC(c3c(O)n(C)c(=O)[nH]c3=O)=Nc3ccccc3S2)cc1` (configuration not stated), the IC50 is 2.37 µM.
`Cc1cc(C)nc(-n2nc(C)c3c2NC(=O)CSC3c2ccccc2F)n1` (configuration not stated): the IC50 was 43 µM.
Next, `O=C(NCC1CC1)C1CCCN(c2ccc(-c3ccccc3)nn2)C1` (configuration not stated): > 50 µM (inactive); `CCOc1ccc2c(c1)c(=O)c(C(=O)c1ccccc1)cn2CC(=O)Nc1ccccc1`: 5.29 µM.
Next, `O=c1ccc(-c2noc(Cc3cccc(Cl)c3)n2)c[nH]1`: > 50 µM (inactive).
`CN(C(=O)c1cccc2cccnc12)c1nc2c(s1)CCc1occc1-2`: the half-inhibitory concentration (IC50) is 24.9 µM.
As to `C/C=C(\Cl)C1=CC(=O)[C@]23C[C@H]2[C@@]2(C)CO[C@@]1(O)[C@@]3(O)O2`, the half-inhibitory concentration (IC50) was 28.2 µM.
As to `CC(=O)c1cccc(NC(=O)c2ccc(CN(c3ccc(C)c(C)c3)S(C)(=O)=O)cc2)c1`, the IC50 is > 50 µM (inactive).
As to `CCc1cccc(CC)c1NC(=O)COC(=O)c1cc2cccc(OC)c2oc1=O`, the half-inhibitory concentration (IC50) was 4.93 µM.
In the case of `O=C(CCCC(=O)c1ccccc1)Nc1ccc(F)cc1`, the 50% inhibitory concentration (IC50) is 29.7 µM.
With `Cc1nc(-c2ccc3c(c2)nnn3CCN2CCOCC2)no1`, the IC50 was > 50 µM (inactive).
Consider `Fc1ccccc1Cc1nc(-c2ccc3nncn3c2)no1`, for which the IC50 is > 50 µM (inactive).
Next, `CC(=O)Nc1ccc(Cc2nc(-c3ccc4c(c3)nc(C)c(=O)n4C3CCCC3)no2)cc1`: > 50 µM (inactive); `Cc1cc(C)c(O)c(-c2cc(C(=O)Nc3ccccc3Cl)[nH]n2)c1`: 1.75 µM.
Consider `COc1cccc(NC(=O)c2ccc(-c3csc(C)n3)cc2)c1`, for which the IC50 was > 50 µM (inactive).
